Our source for the GI50 and TGI values is PubChem BioAssay (NCI).

Where “and” joins values, the source holds several entries; their conditions need not be identical. Equal values may be shown once.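 Briefly, cells in 96-well plates were exposed to five compound concentrations for 48 h, and endpoints were estimated by linear interpolation. GI50 marks 50% less growth. TGI: concentration producing complete growth inhibition.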

Some test systems named below: A549 NSCLC; HL-60(TB) leukemia; HOP-62 NSCLC; KM12 colon; MALME-3M melanoma; OVCAR-3 ovarian; SK-MEL-28 melanoma; SNB-19 CNS; TK-10 renal; UO-31 renal.
Holding throughout (assay): inhibition of tumour cell growth, NCI panel, 48 h

For the compound `COc1ccc2ncn(-c3cc(O[C@H](C)c4ccccc4Cl)c(C(N)=O)s3)c2c1`, the GI50 is 0.0287 µM with A549 NSCLC; 0.00849 µM in the experiment with HL-60(TB) leukemia; 0.0192 µM in the experiment with HOP-62 NSCLC; 0.00907 µM in the experiment with KM12 colon; 8.21 µM in the experiment with MALME-3M melanoma; 0.00863 µM in the experiment on OVCAR-3 ovarian. The GI50 with SK-MEL-28 melanoma is 0.105 µM; in the experiment on SNB-19 CNS, 0.0814 µM; in the experiment on TK-10 renal it was 1.19 µM; with UO-31 renal, 1.41 µM. Further, the TGI with A549 NSCLC was greater than 25 µM; with HL-60(TB) leukemia it was 2.81 µM; in the experiment with HOP-62 NSCLC it was greater than 25 µM; in the experiment with KM12 colon, 5.23 µM; in the experiment on MALME-3M melanoma, greater than 25 µM; in the experiment on OVCAR-3 ovarian, 1.07 µM. In addition, the TGI with SK-MEL-28 melanoma was greater than 25 µM; in the experiment on SNB-19 CNS, greater than 25 µM; with TK-10 renal, 11.1 µM; in the experiment on UO-31 renal, 17 µM.
Turning to `COC(=O)CCC(=O)CC1CC(=O)C2CCCN12` (stereo not given), the TGI with A549 NSCLC, in the experiment on HL-60(TB) leukemia, in the experiment on HOP-62 NSCLC, in the experiment with KM12 colon, in the experiment on MALME-3M melanoma and with OVCAR-3 ovarian was greater than 100 µM throughout. Moreover, the TGI in the experiment on SK-MEL-28 melanoma, in the experiment on SNB-19 CNS, in the experiment on TK-10 renal and in the experiment on UO-31 renal was greater than 100 µM each time.
As to `[Au+].[Au+].[Au+].[c-]1nccn1Cc1ccccc1.[c-]1nccn1Cc1ccccc1.[c-]1nccn1Cc1ccccc1`, the GI50 in the experiment with A549 NSCLC was 24.7 µM; in the experiment with HL-60(TB) leukemia, 3.16 µM; in the experiment with HOP-62 NSCLC it was 5.99 µM; with KM12 colon it was 7.75 µM; in the experiment with MALME-3M melanoma, 3.35 µM; in the experiment with OVCAR-3 ovarian, 2.33 µM. Moreover, the GI50 is 2.71 µM in the experiment on SK-MEL-28 melanoma, 23.1 µM with SNB-19 CNS, 11.1 µM in the experiment with TK-10 renal and 15 µM with UO-31 renal. The TGI came out at 65.4 µM in the experiment with A549 NSCLC; 16 µM with HL-60(TB) leukemia; 28.5 µM in the experiment with HOP-62 NSCLC; 39.9 µM with KM12 colon; 7.08 µM in the experiment with MALME-3M melanoma; 5.27 µM in the experiment on OVCAR-3 ovarian. For the same compound, the TGI in the experiment on SK-MEL-28 melanoma stood at 6.15 µM; in the experiment on SNB-19 CNS it was 59 µM; in the experiment with TK-10 renal, 29.6 µM; with UO-31 renal it was 28.4 µM.
Take `COc1cc2c(cc1O)C1Cc3ccc(OC)c(O)c3C(C2)N1C` (stereo not given): the TGI in the experiment with A549 NSCLC, with HL-60(TB) leukemia, with HOP-62 NSCLC, in the experiment with KM12 colon, in the experiment on MALME-3M melanoma and with OVCAR-3 ovarian was greater than 100 µM throughout. The TGI in the experiment with SK-MEL-28 melanoma, with SNB-19 CNS, in the experiment with TK-10 renal and in the experiment on UO-31 renal was greater than 100 µM each time.
For the compound `Nc1nc(CCl)nc(Nc2ccccc2)n1`, the TGI was determined as 79.4 µM in the experiment with A549 NSCLC; 11.2 µM in the experiment on HL-60(TB) leukemia; 38.8 µM in the experiment on HOP-62 NSCLC; 30.1 µM in the experiment on KM12 colon; 33.7 µM in the experiment with MALME-3M melanoma; 32.8 µM in the experiment on OVCAR-3 ovarian. In addition, the TGI in the experiment on SK-MEL-28 melanoma is 33.2 µM; with SNB-19 CNS it was greater than 100 µM; in the experiment on TK-10 renal, 83.4 µM; with UO-31 renal, 67.3 µM.
On to `Cc1cn2c(/C=C3\C(=O)N(C)c4ccc(O)cc43)c(C)nc2s1`, for which the GI50 was 7.9 µM in the experiment on A549 NSCLC; 2.15 µM in the experiment with HL-60(TB) leukemia; 18.2 µM in the experiment on HOP-62 NSCLC; 2.38 µM in the experiment on KM12 colon; 8.58 µM with MALME-3M melanoma; 2.65 µM with OVCAR-3 ovarian. The GI50 in the experiment with SK-MEL-28 melanoma was 5.15 µM; in the experiment with SNB-19 CNS, 3.64 µM; with TK-10 renal, 16.1 µM; with UO-31 renal it was 9.03 µM. In addition, the TGI was greater than 100 µM with A549 NSCLC; 6.1 µM in the experiment on HL-60(TB) leukemia; greater than 100 µM with HOP-62 NSCLC; greater than 100 µM with KM12 colon; greater than 100 µM with MALME-3M melanoma; 17 µM with OVCAR-3 ovarian. In addition, the TGI with SK-MEL-28 melanoma is greater than 100 µM; in the experiment on SNB-19 CNS, 39.1 µM; in the experiment with TK-10 renal, greater than 100 µM; in the experiment on UO-31 renal it was greater than 100 µM.
Consider `COC(=O)/C(C#N)=C1\CCC(O)N1` (stereo not given), for which the TGI in the experiment with A549 NSCLC, with HL-60(TB) leukemia, in the experiment with HOP-62 NSCLC, in the experiment on KM12 colon, in the experiment with MALME-3M melanoma and in the experiment on OVCAR-3 ovarian was greater than 100 µM throughout. The TGI in the experiment on SK-MEL-28 melanoma, with SNB-19 CNS, in the experiment with TK-10 renal and in the experiment on UO-31 renal was greater than 100 µM throughout.
For `Cc1cc[c-]cc1.Fc1c[c-]c(-c2ccccn2)c(F)c1.[Pt+2].c1ccc(P(C[PH+](c2ccccc2)c2ccccc2)c2ccccc2)cc1`, the GI50 was 1.43 µM in the experiment with A549 NSCLC; 2.36 µM in the experiment with HL-60(TB) leukemia; 2.84 µM with HOP-62 NSCLC; 2.4 µM with KM12 colon; 1.7 µM with MALME-3M melanoma; 1.72 µM in the experiment with OVCAR-3 ovarian. Also, the GI50 in the experiment on SK-MEL-28 melanoma is 2.86 µM; in the experiment with SNB-19 CNS it was 2.81 µM; with TK-10 renal, 2.93 µM; in the experiment with UO-31 renal it was 2.13 µM. Moreover, the TGI in the experiment with A549 NSCLC was found to be 12.1 µM; in the experiment on HL-60(TB) leukemia, 6.88 µM; in the experiment with HOP-62 NSCLC, 10.7 µM; in the experiment with KM12 colon, 9.23 µM; in the experiment on MALME-3M melanoma, 5.06 µM; in the experiment with OVCAR-3 ovarian, 10.6 µM. For the same compound, the TGI in the experiment on SK-MEL-28 melanoma worked out at 10.3 µM; in the experiment on SNB-19 CNS, 12.8 µM; in the experiment with TK-10 renal, 14.8 µM; in the experiment on UO-31 renal, 7.53 µM.
`CC1=NN(C(=O)CC(=O)N(C(=O)c2ccccc2Cl)c2ccc(C)cc2)C(=O)C1N=Nc1ccc([N+](=O)[O-])cc1` (stereo not given): the TGI in the experiment with A549 NSCLC was greater than 67.7 µM; in the experiment on HL-60(TB) leukemia it was greater than 68.8 µM; in the experiment on HOP-62 NSCLC it was greater than 100 µM; with KM12 colon, greater than 100 µM; in the experiment on MALME-3M melanoma it was greater than 100 µM; in the experiment on OVCAR-3 ovarian, greater than 100 µM. The TGI was greater than 100 µM with SK-MEL-28 melanoma, greater than 100 µM in the experiment on SNB-19 CNS, greater than 100 µM in the experiment with TK-10 renal and greater than 93.6 µM with UO-31 renal.
On to `COc1cccc(-n2c3nc(=O)n(C)c(=O)c-3nc3ccccc32)c1`, for which the TGI is 52.2 µM with A549 NSCLC; 28.2 µM in the experiment with HL-60(TB) leukemia; greater than 100 µM in the experiment on HOP-62 NSCLC; greater than 100 µM in the experiment with KM12 colon; 29.8 µM in the experiment on MALME-3M melanoma; 8.8 µM with OVCAR-3 ovarian. In addition, the TGI in the experiment on SK-MEL-28 melanoma was 61.4 µM; with SNB-19 CNS, 74.3 µM; in the experiment on TK-10 renal it was greater than 100 µM; in the experiment on UO-31 renal, greater than 100 µM.
For the compound `N.N.N.N.[Cl-].[Co+3].[N-]=[N+]=[N-].[N-]=[N+]=[N-]`, the GI50 in the experiment with A549 NSCLC is greater than 100 µM; in the experiment on HL-60(TB) leukemia, 74.3 µM; with HOP-62 NSCLC, greater than 100 µM; in the experiment on KM12 colon, greater than 100 µM; with MALME-3M melanoma, 57.9 µM; in the experiment with OVCAR-3 ovarian it was greater than 100 µM. Besides, the GI50 in the experiment on SK-MEL-28 melanoma was 60.3 µM; in the experiment with SNB-19 CNS it was greater than 100 µM; with TK-10 renal, greater than 100 µM; in the experiment on UO-31 renal, 41.3 µM. The TGI in the experiment on A549 NSCLC, in the experiment on HL-60(TB) leukemia, in the experiment on HOP-62 NSCLC, in the experiment with KM12 colon, with MALME-3M melanoma and in the experiment with OVCAR-3 ovarian was greater than 100 µM in each case. In addition, the TGI in the experiment on SK-MEL-28 melanoma, with SNB-19 CNS, in the experiment on TK-10 renal and with UO-31 renal was greater than 100 µM throughout.
In the case of `CCOC(=O)c1c[nH]c2oc(/C=N/N3CC(CN4CCOCC4)OC3=O)cc2c1=O` (stereo not given), the TGI in the experiment with A549 NSCLC, in the experiment with HL-60(TB) leukemia, with HOP-62 NSCLC, with KM12 colon, in the experiment with MALME-3M melanoma and in the experiment with OVCAR-3 ovarian was greater than 100 µM each time. Further, the TGI in the experiment on SK-MEL-28 melanoma, in the experiment on SNB-19 CNS, with TK-10 renal and with UO-31 renal was greater than 100 µM throughout.
Turning to `C[C@@]12CCCc3coc(c31)C(=O)c1cc3c(cc12)C(=O)C=CC3=O`, the GI50 is greater than 1 µM in the experiment with A549 NSCLC; greater than 1 µM in the experiment with HL-60(TB) leukemia; greater than 100 µM with HOP-62 NSCLC; greater than 1 µM with KM12 colon; greater than 1 µM with OVCAR-3 ovarian; greater than 1 µM in the experiment with SNB-19 CNS. In addition, the GI50 in the experiment on TK-10 renal and with UO-31 renal was greater than 1 µM throughout. The TGI is > 1 µM and 51.4 µM in the experiment with A549 NSCLC; greater than 100 µM with HL-60(TB) leukemia; greater than 100 µM with HOP-62 NSCLC; > 1 µM and 41.8 µM in the experiment on KM12 colon; greater than 1 µM in the experiment with MALME-3M melanoma; > 1 µM and 41.8 µM in the experiment with OVCAR-3 ovarian. Also, the TGI is greater than 1 µM in the experiment on SK-MEL-28 melanoma; greater than 100 µM in the experiment on SNB-19 CNS; > 1 µM and 35.8 µM in the experiment with TK-10 renal; > 1 µM and 29.7 µM in the experiment on UO-31 renal.
With `C[C@]12CC[C@H](O)C[C@H]1CC[C@@H]1[C@@H]2CC[C@]2(C)[C@@H](C3=CC(=O)OC3)CC[C@]12O`, the TGI in the experiment with A549 NSCLC was determined as 0.0456 µM; in the experiment on HL-60(TB) leukemia, 0.272 µM; in the experiment with HOP-62 NSCLC, 0.169 µM; with KM12 colon, 3.27 µM; in the experiment on MALME-3M melanoma, 0.523 µM; with OVCAR-3 ovarian it was 0.204 µM. Also, the TGI in the experiment with SK-MEL-28 melanoma is 2.01 µM; with SNB-19 CNS, 2.2 µM; in the experiment with TK-10 renal, 1.59 µM; with UO-31 renal it was 4.07 µM. The results for the GI50 in the experiment with HL-60(TB) leukemia and in the experiment with HOP-62 NSCLC were 0.0391 µM and 0.0313 µM, respectively.
